The values below are quoted from earlier work in patent US8974824B2, “Lanthanum composition” (Mylan Laboratories Ltd., priority 2008, dated 2015).

The conditions of the data set: pH range of 3 to 5 in gastric fluid; Lanthanum in two-fold molar excess to phosphate.

As for `[La]` [Lanthanum], the available phosphate bound result is recorded as “approximately 97%”.
